# Results published in patent US8017786B2, “Substituted β-phenyl-α-hydroxy-propanoic acid, synthesis method and use thereof” (Northwest University, priority 2006, dated 2011).
# What was measured:
# Format in all cases: in vivo, rat
# [1] = system: creatine kinase isoenzyme (CK-MB); assay: Serum CK-MB activity in rats with myocardial ischemia; conditions: for CK-MB: serum, 24 h after ligation
# Experimental: (§1) At 0.5 h after the rats of these groups were administered intragastrically, the standard II lead electrocardiogram (before modeling) was recorded, and the height of ST-T segment was measured. The rats of sham operation group were then subjected to coronary artery braid without ligation, and the rats of other groups were subjected to coronary artery ligation in accordance with the following method to establish cute myocardial ischemia models. The rats were subjected to etherization, fixed at supine position, and their normal electrocardiograms (before modeling) were recorded. The skin of left thorax was incised under aseptic conditions, the 4th intercostal muscles were isolated in blunt way, the heart was extruded by light pressure to the right thorax, the left anterior descending coronary artery was ligated at a position 2˜3 mm departing from the left coronary artery origin and between the pulmonary conus and the left auricle of heart, then the heart was sent back to thorax cavity immediately and sutured the incision. Penicillin was smeared topically for the prevention of infections. After operation, the electrocardiogram of postischemia was recorded immediately (at 0 min after modeling), and the height of ST-T segment was measured.
# [2] = system: lactate dehydrogenase (LDH); assay: Serum LDH activity in rats with myocardial ischemia; conditions: for LDH: serum, 24 h after ligation
# Experimental: as §1
# [3] = system: rats with cardiac ischemia reperfusion (I/R) injury; assay: Myocardial infarction areas caused by cardiac muscle I/R; conditions: for aar/lv / nec/aar / nec/lv: 5 days, ischemia 30 min, reperfusion 30 min
# Experimental: (§2) 52 SD rats having a body weight of 220±20 g were randomly divided into model control group, salviannic acid injection group (in 1 mL/kg), and group of bornyl β-(3,4-dihydroxylphenyl)-α-hydroxylpropionate ester at a small, middle and large dose (ip 5, 15, 35 mg/kg). The rats of the normal group and the model control group were ip administered with equal-volume of physiologic saline. The rats of all groups were administered for consecutive 5 days. When the rats were administered for the last time, they were simultaneously anesthetized with 1.5% pentobarbital sodium (ip 45 mg/kg), then a catheter was inserted into the right carotid artery, and connected via a transducer to an eight-channeled physiological recorder. Tracheal cannula was performed, and the ventilation rate was maintained at 60 times/min. The chest was opened, a 6/0 suture was used to form a loop at a site 1˜2 mm from the root of the anterior descending coronary artery, and a plastic pipe was introduced through the loop, then the loop was tightened up. The change of electrocardiogram was observed. An increase or decrease of ST indicated the success of ligation. The color of the myocardial tissue below the ligation suture became darker. 30 minutes later, the plastic pipe was pulled out to allow coronary artery blood flowing again and cause hyperemia of local tissue during reperfusion. For the groups subjected to ischemia for 30 min and reperfusion for 30 min, the myocardial infarction areas were recorded before the test, after ischemia for 1 min and 30 min, and after reperfusion for 30 min; for the groups subjected to ischemia for 30 min and reperfusion for 2 h, cardiac tissue samples were taken and fixed using 10% formalin, embedded with paraffin, serially sliced into sections with a thickness of 4 μm, and separately subjected to immunohistochemistry tests; the rats of the sham operation group were subjected only to the introduction of suture but their coronary arteries were not ligated.
# After the rats were subjected to ischemia and reperfusion for 30 minutes, their anterior descending coronaries were ligated again, then they were sacrificed, their hearts were removed promptly, and 0.5 mL of 1% evans blue was injected into heart chambers via aorta to distinguish the ischemic regions and the non-ischemic regions. After the heart atrium and right ventricle were cut-off, the heart was refrigerated at −20° C. for 30 min, then placed in a tailor-made slice groove, and cut along the long axis to form 2 mm slices. The slices were immersed in 1% TTC phosphoric acid buffer solution (pH7.4), and incubated at 37° C. for 30 min to distinguish risky regions and necrotic regions. Then the slices were fixed with 10% formaldehyde for 24 h to enhance staining color for contrast photography. After the above treatment, the myocardial tissue was divided into: normal myocardia in blue, ischemic myocardia in light red, and necrotic myocardion in gray. A computer image analysis software was used to calculate the percentage of the area of the infarct myocardial region (nec) based on the area of the risky myocardial region (aar, i.e., ischemic myocardia, including ischemic infarct region and ischemic non-infarct region) (nec/aar), and the percentage of the area of the infarct myocardial region based on the whole area of the myocardia (nec/lv) to indicate the degree of infarct, as well as the percentage of the area of the risky myocardia based on the area of the left ventricle (aar/lv).
# Bcl-2 = assay: Immunohistochemistry protein expression in I/R myocardial tissue: Bcl-2; conditions: for Bcl-2 protein expression, OD value: 5 days, ischemia 30 min, reperfusion 2 h
# Experimental: as §2
# (§3) Standard immunohistochemistry ABC and SP methods were employed for staining. Bax: anti-rabbit polyclonal antibody (Santa CruzBio. Inc.) at a dilution of 1:200; […]: anti-rabbit polyclonal antibody (TBD Tianjin Biotechnological Center). At a dilution of […]; caspase-3: anti-rabbit polyclonal antibody (Normarkers Fromont, Calif.), at a dilution of 1:200; MMP-2: anti-murine monoclonal antibody (NormarkersFromont, Calif.) at a dilution of 1:200; PPARγ: anti-caprine polyclonal antibody (Santa Cruz Bio. Inc.), at a dilution of 1:500. The specific procedures were performed in accordance with the instructions of the ABC and SP kits, DAB was used for color development, and neutral resin was used for mounting. PBS was used instead of the first antibody as a negative control. Cells with positive expression of the test polypeptides were of brown-yellow color, with MMP-2 protein being present in acytoplasm, Bcl-2 expressed in nuclear membrane and cytoplasm, Bax mainly in cytoplasm and partially in nucleus, and caspase-3 mainly in nucleus and partially in cytoplasm. CMIAS image analysis system was used for random selection of fields of slices and automatic selection of sites for analysis, and statistic analysis was performed by using mean optical density values or integral optical density values of the obtained myocardial tissue slices.
# MMP-2 = assay: Immunohistochemistry protein expression in I/R myocardial tissue: MMP-2; conditions: for MMP-2 protein expression, OD value: 5 days, ischemia 30 min, reperfusion 2 h
# Experimental: as §2, §3
compound,measurement,setting,value
"CC1(C)C2CCC1(C)C(OC(=O)C(O)Cc1ccc(O)c(O)c1)C2 (stereo not drawn) [bornyl salvianate ester, bornyl β-(3,4-dihydroxylphenyl)-α-hydroxylpropionate ester]",CK-MB,[1]; 10 mg/kg intragastric,1267.0 ± 274.4 U/L
same,CK-MB,[1]; 20 mg/kg intragastric,1074.1 ± 116.8 U/L
same,CK-MB,[1]; 40 mg/kg intragastric,906.3 ± 99.9 U/L
same,activity of creatine kinase isoenzyme (CK-MB) (in words),"[1]; all dose groups, 24 h later",decreased
same,LDH,[2]; 10 mg/kg intragastric,1663.7 ± 374.43 U/L
same,LDH,[2]; 20 mg/kg intragastric,2022.7 ± 202.63 U/L
same,LDH,[2]; 40 mg/kg intragastric,1712.5 ± 209.1 U/L
same,activity of lactate dehydrogenase (LDH) (in words),"[2]; all dose groups, 24 h later",decreased
same,aar/lv,[3]; 5 mg/kg ip,64.09 ± 18.10%
same,nec/aar,[3]; 5 mg/kg ip,61.72 ± 14.65%
same,nec/lv,[3]; 5 mg/kg ip,48.45 ± 17.11%
same,aar/lv,[3]; 15 mg/kg ip,63.02 ± 15.98%
same,nec/aar,[3]; 15 mg/kg ip,62.63 ± 13.82%
same,nec/lv,[3]; 15 mg/kg ip,48.23 ± 15.34%
same,aar/lv,[3]; 35 mg/kg ip,51.97 ± 13.04 %
same,nec/aar,[3]; 35 mg/kg ip,50.01 ± 9.03 %
same,nec/lv,[3]; 35 mg/kg ip,40.21 ± 12.65 %
same,decrease of aar/lv in comparison with the model control group,[3]; large dose group (35 mg/kg ip),22.5%
same,decrease of nec/aar in comparison with the model control group,[3]; large dose group (35 mg/kg ip),22%
same,decrease of nec/lv in comparison with the model control group,[3]; large dose group (35 mg/kg ip),20.4%
same,"Bcl-2 protein expression, OD value",Bcl-2; 5 mg/kg ip,0.15 ± 0.03
same,"Bcl-2 protein expression, OD value",Bcl-2; 15 mg/kg ip,0.15 ± 0.06
same,"Bcl-2 protein expression, OD value",Bcl-2; 35 mg/kg ip,0.21 ± 0.04
same,expression of Bcl-2 protein (in words),Bcl-2; myocardial cells I/R,increase the expression of Bcl-2 protein
same,"MMP-2 protein expression, OD value",MMP-2; 5 mg/kg ip,0.14 ± 0.05
same,"MMP-2 protein expression, OD value",MMP-2; 15 mg/kg ip,0.14 ± 0.03
same,"MMP-2 protein expression, OD value",MMP-2; 35 mg/kg ip,0.11 ± 0.03
same,MMP-2 protein (in words),MMP-2; myocardial I/R,decrease of MMP-2 protein
